Laboratory results published in ChEMBL document CHEMBL1909046, “DrugMatrix in vitro pharmacology data”.

What was measured:
[1] = molecular target: Beta-1 adrenergic receptor (Homo sapiens, UniProt P08588); experiment: DRUGMATRIX: Adrenergic beta1 radioligand binding (ligand: [125I] Cyanopindolol); assay type: cell membranes, CHO-K1, Membrane; settings: cho-k1; Not Active = under 50% inhibition at 10 µM
[2] = DRUGMATRIX: Sigma2 radioligand binding (ligand: [3H] Ifenprodil); assay type: cell membranes, Rattus norvegicus, Wistar, Brain, Membrane; settings: Not Active = under 50% inhibition at 10 µM
Endothelin-1 receptor = molecular target: T1, Endothelin-1 receptor (Homo sapiens, UniProt P25101); assay type: cell membranes, Membrane; settings: cho-k1; note: in other assays of this panel Not Active means under 50% inhibition at 10 µM
T1 sequence (P25101 whole entry): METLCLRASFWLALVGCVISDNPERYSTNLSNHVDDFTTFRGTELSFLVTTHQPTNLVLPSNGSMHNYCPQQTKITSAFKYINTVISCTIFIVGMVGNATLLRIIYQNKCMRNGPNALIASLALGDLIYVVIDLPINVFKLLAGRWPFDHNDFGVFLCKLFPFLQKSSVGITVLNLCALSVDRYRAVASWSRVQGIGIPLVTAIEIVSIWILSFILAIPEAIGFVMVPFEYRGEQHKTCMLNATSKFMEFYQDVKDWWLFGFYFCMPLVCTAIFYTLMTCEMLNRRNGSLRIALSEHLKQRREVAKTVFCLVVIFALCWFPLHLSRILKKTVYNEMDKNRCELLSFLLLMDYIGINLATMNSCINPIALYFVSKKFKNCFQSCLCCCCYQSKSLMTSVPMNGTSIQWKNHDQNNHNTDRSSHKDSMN

[3] = molecular target: T2, Polyunsaturated fatty acid lipoxygenase ALOX15 (Oryctolagus cuniculus, UniProt P12530); experiment: biochemical; assay type: tissue-based, Reticulocytes; settings: reticulocytes;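 note: inhibition of 15-lipoxygenase enzyme activity measured with linoleic acid as the substrate; in other assays of this panel Not Active means under 50% inhibition at 10 µM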
T2 sequence (P12530 whole entry): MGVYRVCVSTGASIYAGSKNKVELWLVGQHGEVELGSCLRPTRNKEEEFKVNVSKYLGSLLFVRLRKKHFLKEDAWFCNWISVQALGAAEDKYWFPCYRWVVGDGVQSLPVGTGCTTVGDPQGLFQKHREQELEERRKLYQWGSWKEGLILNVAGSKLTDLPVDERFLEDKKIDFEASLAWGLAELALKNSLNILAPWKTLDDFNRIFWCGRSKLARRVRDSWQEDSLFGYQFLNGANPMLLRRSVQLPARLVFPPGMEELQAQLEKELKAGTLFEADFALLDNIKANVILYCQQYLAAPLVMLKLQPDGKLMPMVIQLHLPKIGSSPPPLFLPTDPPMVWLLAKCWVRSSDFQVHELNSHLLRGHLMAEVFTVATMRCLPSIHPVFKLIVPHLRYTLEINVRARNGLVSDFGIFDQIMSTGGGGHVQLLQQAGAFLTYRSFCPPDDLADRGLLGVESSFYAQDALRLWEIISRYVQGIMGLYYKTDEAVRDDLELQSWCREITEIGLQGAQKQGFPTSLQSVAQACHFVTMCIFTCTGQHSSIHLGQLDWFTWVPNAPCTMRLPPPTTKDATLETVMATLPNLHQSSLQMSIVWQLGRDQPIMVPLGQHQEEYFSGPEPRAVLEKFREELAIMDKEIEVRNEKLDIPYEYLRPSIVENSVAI

Caspase-1 = molecular target: T3, Caspase-1 (Homo sapiens, UniProt P29466); design: species or system Escherichia coli;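 note: Caspase-1 enzyme inhibition assay with a peptide substrate; in other assays of this panel Not Active means under 50% inhibition at 10 µM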
T3 sequence (P29466 whole entry): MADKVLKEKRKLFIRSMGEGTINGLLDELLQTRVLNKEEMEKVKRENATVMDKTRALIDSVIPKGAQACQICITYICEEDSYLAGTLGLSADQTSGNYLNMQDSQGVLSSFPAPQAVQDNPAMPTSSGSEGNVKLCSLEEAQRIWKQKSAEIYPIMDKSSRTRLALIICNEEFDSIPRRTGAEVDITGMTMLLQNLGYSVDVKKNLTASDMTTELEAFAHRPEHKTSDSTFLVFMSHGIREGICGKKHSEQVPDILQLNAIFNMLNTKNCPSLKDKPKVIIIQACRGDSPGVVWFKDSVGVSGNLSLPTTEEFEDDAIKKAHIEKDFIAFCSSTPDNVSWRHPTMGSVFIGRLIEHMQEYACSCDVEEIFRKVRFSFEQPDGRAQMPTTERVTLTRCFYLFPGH

Beta-1 adrenergic receptor, sequence (P08588 whole entry): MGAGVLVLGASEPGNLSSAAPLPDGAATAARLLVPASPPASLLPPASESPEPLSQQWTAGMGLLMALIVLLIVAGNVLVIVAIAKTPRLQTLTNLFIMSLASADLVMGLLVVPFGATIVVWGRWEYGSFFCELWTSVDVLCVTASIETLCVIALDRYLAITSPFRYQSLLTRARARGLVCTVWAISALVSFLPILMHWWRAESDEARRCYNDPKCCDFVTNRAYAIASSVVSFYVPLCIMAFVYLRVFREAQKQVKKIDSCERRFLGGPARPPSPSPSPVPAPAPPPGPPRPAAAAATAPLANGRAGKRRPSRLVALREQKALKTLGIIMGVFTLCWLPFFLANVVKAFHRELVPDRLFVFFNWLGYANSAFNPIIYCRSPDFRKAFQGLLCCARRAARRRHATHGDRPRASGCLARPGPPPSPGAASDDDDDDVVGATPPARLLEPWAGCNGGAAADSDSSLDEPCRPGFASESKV

Oc1c(Cl)cc(Cl)c(Cl)c1Cc1c(O)c(Cl)cc(Cl)c1Cl [HEXACHLOROPHENE]
IC50 [1]: Not Active
IC50 [2]: Not Active
Ki [2]: Not Active
IC50 (Endothelin-1 receptor): Not Active
IC50 [3]: Not Active
IC50 (Caspase-1): Not Active

O=C1CN=C(c2ccccc2Cl)c2cc([N+](=O)[O-])ccc2N1 [CLONAZEPAM]
IC50 [1]: Not Active
IC50 [2]: Not Active
Ki [2]: Not Active
IC50 (Endothelin-1 receptor): Not Active
IC50 [3]: Not Active
IC50 (Caspase-1): Not Active

C[C@@H](CO)NC(=O)[C@@H]1C=C2c3cccc4[nH]cc(c34)C[C@H]2N(C)C1 [ERGONOVINE]
IC50 [1]: Not Active
IC50 [2]: Not Active
Ki [2]: Not Active
IC50 (Endothelin-1 receptor): Not Active
IC50 [3]: Not Active
IC50 (Caspase-1): Not Active

CCn1cc(C(=O)O)c(=O)c2cnc(N3CCCC3)nc21 [PIROMIDIC ACID]
IC50 [1]: Not Active
IC50 [2]: Not Active
Ki [2]: Not Active
IC50 (Endothelin-1 receptor): Not Active
IC50 [3]: Not Active
IC50 (Caspase-1): Not Active

C[C@@H]1C[C@H]2[C@@H]3CCC4=CC(=O)C=C[C@]4(C)[C@@]3(F)[C@@H](O)C[C@]2(C)[C@H]1C(=O)CO [DESOXIMETASONE]
IC50 [1]: Not Active
IC50 [2]: Not Active
Ki [2]: Not Active
IC50 (Endothelin-1 receptor): Not Active
IC50 [3]: Not Active
IC50 (Caspase-1): Not Active

CN(C)CC[C@@H](c1ccc(Cl)cc1)c1ccccn1 [DEXCHLORPHENIRAMINE]
IC50 [1]: Not Active
IC50 ([2]; read-out: IC50): 19.1 µM
Ki ([2]; read-out: Ki): 11.7 µM
IC50 (Endothelin-1 receptor): Not Active
IC50 [3]: Not Active
IC50 (Caspase-1): Not Active
